Reference: US6953783B1, “Modulation of gene expression by combination therapy” (MethylGene, Inc., priority 1998, dated 2005)
pIC50: −log10 of the molar value. d = 2'-deoxy (DNA); m = 2'-O-methyl

What was measured:
thymidylate synthase = conditions: T24 cells; 25 or 50 nM, 72 hours
Text: After treatment, the cells were lysed and analyzed by Western blotting analysis for thymidylate synthase protein levels using a thymidylase synthase specific antibody (commercially available from Chemicon Int., Temecula, Calif.).

p21^WAF1 = p21^WAF1 protein levels by Western blotting in T24 cells; format: cell-based, human; conditions: 40 nM or 75 nM, 24 or 48 hours
Experimental: Another member of the cyclin-dependent kinase inhibitor (CDKI) family, p21^WAF1, inhibits a wide range of cyclin/CDK complexes involved in G1 and S phase progression (Tam et al. (1994) Cancer Res. 54: 5816-5820; Baghdassarian and French (1996) Hematol. Cell Ther. 88: 313-323; Gotz et al. (1996) Oncogene 13: 391-398). […] To do this, DNA MeTase, p21^WAF1, and α-actin protein levels were measured by Western blotting analysis in T24 cells that had been treated for either 24 hours (i.e., one 4 hour transfection time) or 48 hours (i.e., two […] transfections 24 hours apart) with either 40 nM or 75 nM of either MG88 or MG208.
T24 cells were also treated for 24 hours (i.e., four hour transfection) with lipofectin only, or lipofectin plus 20, 40, or 80 nM of MG88 or MG208. After treatment, cell lysates were prepared and analyzed by Western blotting analysis with α-actin-specific antibody or p21-specific antibody.

T24 cells = experiment: T24 cell proliferation during and after treatment (cell counting); format: cell-based, human; conditions: 75 nM, days 0-5, relative to lipofectin
Text: To study the effect of specific inhibition of DNA MeTase on cell growth, cellular proliferation rates were monitored both during the treatment and post treatment periods to determine the duration of the effect. […] During and following treatment, cells were counted. […] To determine whether the transient re-expression of p16^ink4A and growth-inhibitory effects induced by short term treatment with MG88 were due to the expansion of a less affected (less demethylated) population of cells within the treated population, or to rapid inactivation of p16^ink4A after MG88 withdrawal, single cell clones were isolated after treatment. Several MG88 clones were, in fact, p16^ink4A negative, confirming that the MG88 treatment produced a mixed population of p16^ink4A positive and negative cells.

p16^ink4A protein = p16^ink4A protein by immunoprecipitation and Western blotting in T24 cells; format: cell-based, human; conditions: 40 nM or 75 nM, 4 h each day up to 10 days
Text: The cyclin-dependent kinase inhibitor (CDKI) p16^ink4A regulates the transition from G1 to S-phases of the cell cycle (Serrano et al. (1993) Nature 366: 704-707). Inactivation of p16^ink4A is one of the most frequently observed abnormalities in human cancer (Serrano et al., supra). Transcriptional inactivation and associated hypermethylation of the p16^ink4A promote region have also been observed in virtually all types of cancer (Gonzales-Zulueta et al. (1995) Cancer Res. 55: 4531-4535; Merlo et al. (1995) Nat. Med. 7: 686-692; Costello et al. (1996) Cancer Res. 56: 2405-2410; Lo et al., Cancer Res. 56: 2721-2725). To investigate the effect of specifically reducing cellular DNA MeTase levels on the expression and methylation status of a silenced p16^ink4A gene, T24 human bladder cancer cells that contain a hypermethylated and silenced p16^ink4A gene were transfected with 40 nM or 75 nM MG88 or control oligonucleotide MG208 with 6.25 μg/ml lipofectin for four hours each day for up to 10 consecutive days. On days 3, 5, 8, and 10, p16^ink4A protein levels were then analyzed by immunoprecipitation followed by Western blotting analysis with a p16^ink4A protein-specific antibody (PharMingen). HeLa cells were used as a positive (+) control for p16^ink4A protein expression.
(§1) Next, to determine whether de novo methylation and silencing of the re-expressed p16^ink4A gene occurred when DNA MeTase returned to normal levels, T24 cells were transfected for 10 consecutive days with either 40 or 75 nM or MG88 or MG208. […] Cell lysates of the T24 cells transfected for ten days were analyzed by Western blotting analysis for expression of DNA MeTase protein,p16^ink4A protein, and actin protein (as a control for equal loading) 3, 5, and 7 days after MG88 transfection.

DNA MeTase protein [1] = experiment: DNA MeTase protein levels by Western blotting in A549 cells; format: cell-based, human; conditions: 20, 40 or 80 nM with lipofectin, 4 h on day 0 and day 1, harvest day 2
Text: (§2) MG88 was next tested for an ability to inhibit DNA MeTase mRNA in two human neoplastic cells, A549 (human non-small cell lung carcinoma cells) and T24 (human bladder cancer cells). […] MG208 was modified as follows: A equals 2′-deoxyriboadenosine; C equals 2′-deoxyribocytidine; G equals 2′-deoxyriboguanosine; T equals 2′-deoxyribothymidine; A equals riboadenosine; U equals uridine; C equals ribocytidine; and G equals riboguanosine. The underlined bases were 2′-methoxyribose substituted nucleotides. Non-underlined bases indicate deoxyribose nucleosides. The backbone of MG208 consisted of a phosphorothioate linkage between adjoining nucleotides.
The MG88 and MG208 oligonucleotides were diluted to the desired concentration from a 0.1 mM stock solution in the transfection media. Cells were exposed to oligonucleotide plus lipofectin (or lipofectin only) for four hours on day 0 and four hours on day 1 (after each four hour treatment, cells were returned to complete media). On day 2 (i.e., 48 hours after the first treatment on day 0), cells were harvested, whole cell lysates were prepared, and DNA MeTase protein levels were analyzed by Western blotting analysis with a DNA MeTase-specific rabbit polyclonal antibody (generated according to standard techniques of a glutathione S -transferase fusion protein containing the first 10 kDa amino terminus from DNA methyltransferase protein). […]

DNA MeTase protein [2] = experiment: DNA MeTase protein levels by Western blotting in T24 cells; format: cell-based, human; conditions: 20, 40 or 80 nM with lipofectin, 4 h on day 0 and day 1, harvest day 2
Text: as §2
The MG88 and MG208 oligonucleotides were diluted to the desired concentration from a 0.1 mM stock solution in the transfection media. Cells were exposed to oligonucleotide plus lipofectin (or lipofectin only) for four hours on day 0 and four hours on day 1 (after each four hour treatment, cells were returned to complete media). On day 2 (i.e., 48 hours after the first treatment on day 0), cells were harvested, whole cell lysates were prepared, and DNA MeTase protein levels were analyzed by Western blotting analysis with a DNA MeTase-specific rabbit polyclonal antibody (generated according to standard techniques of a glutathione S -transferase fusion protein containing the first 10 kDa amino terminus from DNA methyltransferase protein). […] Equal loading of all lanes was confirmed by blotting for α-actin protein levels with an actin-specific rabbit polyclonal antibody (commercially available from Santa Cruz Biotech., Santa Cruz, Calif.).
as §1

p16^ink4A promoter = experiment: Methylation specific PCR and bisulfite genomic sequencing of the p16^ink4A promoter in T24 cells; format: cell-based, human; conditions: T24 cells
Experimental: To identify changes in the methylation status of the p16^ink4A promoter induced by MG88 treatment, methylation specific PCR (MSP) and bisulfite genomic sequencing was performed as previously described ([…] et al. (1994) Nat. Gen. 8: 27-32; Frommer et al. (1991) Proc. Nat. Acad. Sci. USA 89: […]). […] Briefly, the Oncor p16 detection system was used (commercially available from Oncor, Gaithersburg, Md.). PCR was performed in a total volume of 25 μl under the following conditions: 100 ng bisulfate-treated DNA (Oncor),10 mM Tris-HCl, pH 8.3, […], 1.5 mM MgCl2, 250 μM dNTPs, 80 ng of each of the following primers ([NT] sense (SEQ ID NO: 79) and [NT] antisense (SEQ ID NO: 80)) and 1 unit of AmpliTaq Gold (Perkin-Elmer). The denaturation cycle was 95° C. for 12 min followed by 35 cycles at 95° C. for 45 seconds, 60° C. for 45 seconds, and 72° C. for 60 seconds, and an elongation cycle of 72° C. for 10 minutes. the PCR product (5 μl) was analyzed on a 2% agarose gel. The unmethylated (U) and demethylated (D) primers (commercially available from Oncor) were used at the same conditions as the specific primers.

p16 tumor suppressor = experiment: Reactivation of p16 expression in T24 cells, oligonucleotide and/or 5-aza-dC (IP/Western, densitometry); format: cell-based, human; conditions: densitometry of FIG. 14 Western, 40 nM oligonucleotide and/or 0.1 μM 5-aza-dC
Experimental: For this purpose, one day before transfection, T24 cells (ATCC No. HTB-4) were plated onto 10 cm plates at 4×10^5 cells/dish. At the time of transfection, cells were washed with phosphate buffered saline (PBS) and 5 ml of optimem media (Gibco-BRL) containing 6.25 μl/ml lipofectin transfection reagent (Gibco-BRL) was added. […] These oligonucleotides were chemically modified as follows: A equals 2'-deoxyriboadenosine; C equals 2'-deoxyribocytidine; G equals 2'-deoxyriboguanosine; T equals 2'-deoxyribothymidine; Aequals riboadenosine; U equals uridine; C equals ribocytidine; and G equals riboguanosine. The underlined bases were 2'-methoxyribose substituted nucleotides. Non-underlined bases indicate deoxyribose nucleosides. The backbone of each oligonucleotide consisted of a phosphorothioate linkage between adjoining nucleotides. The oligonucleotides were diluted to the desired concentration from a 0.1 mM stock solution in the transfection media. After a four-hour incubation at 37° C. in a 5% CO2 incubator, the plates were washed with PBS and 10 ml of fresh cell culture media was added. Following an additional two-hour incubation at 37° C., freshly prepared 5-aza-2'-deoxycytidine was added to the tissue culture medium. Cells were transfected for a total of three days and split every other day to ensure optimal transfection conditions. At the indicated time points, cells were harvested by trypsinization and pelleted by centrifugation at 1100 rpm and 4° C. for five minutes. The cell pellet was resuspended in PBS and counted on a Coulter Particle Counter to determine the total cell number. Following a second centrifugation, the PBS was aspirated from the cell pellet and the pellet was frozen at 70° C. […] The lysed cells were incubated on ice for 10 minutes and cell particulate matter was removed by centrifugation at 10,000 rpm for 10 minutes at 4° C. The protein concentration for each sample was determined using the Bio Rad Protein Assay and 600 μg of protein was used for each immunoprecipitation. […]

human DNA MeTase mRNA = experiment: Antisense inhibition of DNA MeTase mRNA (screen of phosphorothioate oligonucleotides); format: cell-based
Text: As shown in FIG. 1 the two […] regions were identified to be highly sensitive to antisense inhibition were targeted by MG88 having the sequence [NT] ID NO:1) (this oligonucleotide is targeted to the […] 5'UTR at nucleotides 532 to 513) and MG98 having the sequence [NT] ID NO:2) (this oligonucleotide is targeted to the […] 3'UTR at nucleotides 5218 to 5199). These oligonucleotides were chemically modified as follows: A equals 2'-deoxyriboadenosine; C equals 2'-deoxyribocytidine; G equals 2'-deoxyriboguanosine; T equals 2'-deoxyribothymidine; A equals riboadenosine; U equals uridine; C equals ribocytidine; and G equals riboguanosine. The underlined bases were 2'-methoxyribose substituted nucleotides. Non-underlined bases indicate deoxyribose nucleosides. The backbone of each oligonucleotide consisted of a phosphorothioate linkage between adjoining nucleotides.

[3] = system: Colo 205 human colon cancer cells; experiment: Colo 205 tumor growth in nude mice; format: in vivo, BALB/c nude mice; conditions: i.v. daily for seven days; 0.5 mg/kg MG98 and/or 0.1 mg/kg 5-aza-dC
Experimental: Eight to ten week old female BALB/c nude mice (Taconic Labs, Great Barrington, N.Y.) were injected subcutaneously in the flank area with 2×10^6 preconditioned Colo 205 human colon cancer cells (ATCC No. CCL-222). Preconditioning of these cells was done by a minimum of three consecutive tumor transplantations in the same strain of nude mice. Subsequently, tumor fragments of approximately 30 mgs were excised and implanted subcutaneously in mice, in the left flank area under Forene anesthesia (Abbott Labs., Geneva, Switzerland). […] Tumor volume was calculated according to standard methods every second day post infusion (see methods, e.g., in Meyer et al. (1989) Int. J. Cancer 43: 851-856).

[4] = mammals; cited from earlier work

5′ GUCUTAAGCTCAACATUCUA 3′ [MG2606, reference compound]
thymidylate synthase protein level compared to lipofectin only (thymidylate synthase): not

5′ UUCATAACCTCAGCATUGUC 3′ [MG2605]
thymidylate synthase protein level compared to lipofectin only (thymidylate synthase): diminished levels of thymidylate synthase protein

5′-AACGAT CAG GAC CCT TGUCC-3′ (DNA AACGATCAGGACCCTTGUCC; sugars from the 5' end m4 d12 m4, all phosphorothioate, methylation of C not given here) [MG208, mismatch control oligonucleotide, reference compound]
p21^WAF1 protein level (p21^WAF1): neither lipofectin nor MG208 had an effect
cell proliferation during treatment (T24 cells): only minimal growth inhibition
induction of expression of p16^ink4A protein (p16^ink4A protein): not detected
reduction in DNA MeTase protein levels (DNA MeTase protein [1]): not
reduction in DNA MeTase protein levels (DNA MeTase protein [2]): not
p16^ink4A methylation status (bisulfite sequencing) (p16^ink4A promoter; days 3 and 5 of treatment): no effect on p16^ink4A methylation status
demethylation of the p16^ink4A promoter region (MSP) (p16^ink4A promoter; treated 3, 5, 9 or 10 days): no effect on methylation of the p16^ink4A gene

5′-UUAATG TAA CCT AAG GUCAA-3′ (DNA UUAATGTAACCTAAGGUCAA; sugars from the 5' end m4 d12 m4, all phosphorothioate, methylation of C not given here) [MG207, negative control oligonucleotide]
p16 expression, Percentage of HeLa Cell Control (p16 tumor suppressor): 1

5′-UUCATG TCA GCC AAG GCC AC-3′ [MG98]
pIC50 (human DNA MeTase mRNA): 7.35
p16 expression, Percentage of HeLa Cell Control (p16 tumor suppressor): 4
tumor volume [3]: showed tumor volume increase

Nc1ncn([C@H]2C[C@H](O)[C@@H](CO)O2)c(=O)n1 [5-aza-dC, 5-aza-2′-deoxycytidine]
p16 expression, Percentage of HeLa Cell Control (p16 tumor suppressor): 11
toxicity of threshold concentrations necessary to inhibit DNA methyltransferase activity [4]: toxic to mammals
tumor volume [3]: showed less tumor volume increase

Nc1ncn([C@@H]2O[C@H](CO)[C@@H](O)[C@H]2O)c(=O)n1 [5-azaC, 5-aza-cytidine]
toxicity of threshold concentrations necessary to inhibit DNA methyltransferase activity [4]: toxic to mammals
